Experimental findings from patent US20240368150A1 (Hoffmann-La Roche Inc., priority 2021, published 2024) are described below.

The subject of experiment [1] is primary human T-cells. Put plainly: Proliferation assay after 5 days (CellTiter-Glo, CD3 stimulation; PBS counter screen). Format: cell-based. The conditions noted are these: Homo sapiens, T-cell, 120 h, CD3 stimulation; for Emax: 5 days, normalized to reference compound A1 as stimulator control = 100%, DMSO neutral control, read-out: Emax proliferation (% activation); for EC50: primary human T-cells, CellTiter-Glo after 5 days, EC50 of fitted sigmoidal curve, read-out: Tcell Proliferation CD3 EC50. In a few lines:
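Primary human T-cells, with or without CD3 stimulation, exposed to compounds for 5 days; cell number read as ATP by CellTiter-Glo 2.0 luminescence after 45 min equilibration and 15 min reagent incubation at room temperature. Compounds activating unstimulated cells or reducing viability were flagged.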
(ATP-based viability assays read luminescence as a measure of living cells.)

The test system of another experiment is MV-3 cells. The experiment is described as follows: T-cell - TCB - MV3 killing assay (MCSP-TCB, RFP object count by Incucyte). Format: cell-based, human. The conditions noted are these: 5 d; for Emax: normalized: MCSP-TCB only = neutral control, 20 μM reference compound A1 = 100%, read-out: MSCP TCB killing MV-3 cells 5 d Emax; for EC50: primary human T-cells + MCSP-TCB, MV-3 RFP cells, read-out: MSCP TCB killing MV-3 cells 5 d EC50.

Experiment [2] deals with primary human T-cells.

Structures are written as SMILES. Read-outs that look alike come from different tables or passages of the source.

Turning to `CN1CC(c2nc(-c3cc4c(cc3F)S(=O)(=O)C[C@H](N)C(=O)N4Cc3ccc(Cl)cc3)no2)CC(F)(F)C1` (stereo partly drawn) [Example 323, (3R)-3-amino-5-[(4-chlorophenyl)methyl]-7-[5-(5,5-difluoro-1-methyl-3-piperidyl)-1,2,4-oxadiazol-3-yl]-8-fluoro-1,1-dioxo-2,3-dihydro-1λ^6,5-benzothiazepin-4-one], the Emax amounted to 109% in the experiment on primary human T-cells [1] and 100% in the experiment with MV-3 cells (Homo sapiens, MV-3, 120 h). In addition, the EC50 with primary human T-cells [1] amounted to 229 nM; in the experiment on MV-3 cells it was 90 nM; with primary human T-cells [2], 403 nM.
Turning to `CN(CC(F)(F)F)c1nnc(-c2ccc3c(c2)N(Cc2ccc(Cl)cc2)C(=O)[C@@H](N)CS3(=O)=O)o1` [Example 392, (3R)-3-amino-5-[(4-chlorophenyl)methyl]-7-[5-[methyl(2,2,2-trifluoroethyl)amino]-1,3,4-oxadiazol-2-yl]-1,1-dioxo-2,3-dihydro-1λ^6,5-benzothiazepin-4-one], the Emax with primary human T-cells [1] came to 96%; with MV-3 cells (Homo sapiens, MV-3, 120 h), 92%. The EC50 was 948 nM in the experiment on primary human T-cells [1], 210 nM in the experiment with MV-3 cells and 568 nM with primary human T-cells [2].
With `CC(C)(C)c1nnc(-c2cc3c(cc2F)S(=O)(=O)C[C@H](N)C(=O)N3Cc2ccc(Cl)cc2)o1` [Example 63, (3R)-3-amino-7-(5-tert-butyl-1,3,4-oxadiazol-2-yl)-5-[(4-chlorophenyl)methyl]-8-fluoro-1,1-dioxo-2,3-dihydro-1λ^6,5-benzothiazepin-4-one], the Emax with primary human T-cells [1] turned out to be 141%; in the experiment with MV-3 cells (Homo sapiens, MV-3, 120 h), 93%. Further, the EC50 in the experiment on primary human T-cells [1] came out at 48.8 nM; in the experiment with MV-3 cells (Homo sapiens, MV-3, 120 h) it was 20 nM; in the experiment with primary human T-cells [2] it was 67.1 nM.
The matching figures for `CC(C)(C)c1noc(-c2cc3c(cc2F)S(=O)(=O)C[C@H](N)C(=O)N3Cc2ccc(Cl)cc2)n1` [Example 43, (3R)-3-Amino-7-(3-tert-butyl-1,2,4-oxadiazol-5-yl)-5-[(4-chlorophenyl)methyl]-8-fluoro-1,1-dioxo-2,3-dihydro-1λ^6,5-benzothiazepin-4-one]: 143%, 102%, 265 nM, 40 nM and 2320 nM.
As to `N[C@H]1CS(=O)(=O)c2ccc(-c3nnc(N4CCOC(F)(F)C4)o3)cc2N(Cc2ccc(Cl)cc2)C1=O` [Example 391, (3R)-3-amino-5-[(4-chlorophenyl)methyl]-7-[5-(2,2-difluoromorpholin-4-yl)-1,3,4-oxadiazol-2-yl]-1,1-dioxo-2,3-dihydro-1λ^6,5-benzothiazepin-4-one], the Emax is 157% in the experiment with primary human T-cells [1] and 100% with MV-3 cells (Homo sapiens, MV-3, 120 h). In addition, the EC50 in the experiment on primary human T-cells [1] amounted to 207 nM; in the experiment with MV-3 cells (Homo sapiens, MV-3, 120 h), 70 nM; in the experiment with primary human T-cells [2] it was 284 nM.
As for `N[C@H]1CS(=O)(=O)c2cc(F)c(-c3nnc(NC4CCC(F)(F)CC4)o3)cc2N(Cc2ccc(Cl)cc2)C1=O` [Example 458, (3R)-3-amino-5-[(4-chlorophenyl)methyl]-7-[5-[(4,4-difluorocyclohexyl)amino]-1,3,4-oxadiazol-2-yl]-8-fluoro-1,1-dioxo-2,3-dihydro-1λ^6,5-benzothiazepin-4-one], the Emax in the experiment with primary human T-cells [1] was 116%; with MV-3 cells (Homo sapiens, MV-3, 120 h), 95%. Moreover, the results for the EC50 with primary human T-cells [1], in the experiment on MV-3 cells and in the experiment on primary human T-cells [2] were 491 nM, 590 nM and 543 nM, respectively.
For `CC(C)(C)c1nc(-c2cc3c(cc2F)S(=O)(=O)C[C@H](N)C(=O)N3Cc2ccc(Cl)cc2)no1` [Example 289, (3R)-3-amino-7-(5-tert-butyl-1,2,4-oxadiazol-3-yl)-5-[(4-chlorophenyl)methyl]-8-fluoro-1,1-dioxo-2,3-dihydro-1λ^6,5-benzothiazepin-4-one], the Emax in the experiment with primary human T-cells [1] turned out to be 124%; with MV-3 cells (Homo sapiens, MV-3, 120 h), 97%. The EC50 stood at 187 nM in the experiment with primary human T-cells [1]; 120 nM with MV-3 cells (Homo sapiens, MV-3, 120 h); 158 nM with primary human T-cells [2].
As to `CC(C)Nc1nnc(-c2cc3c(cc2F)S(=O)(=O)C[C@H](N)C(=O)N3Cc2ccc(Cl)cc2)o1` [Example 464, (3R)-3-amino-5-[(4-chlorophenyl)methyl]-8-fluoro-7-[5-(isopropylamino)-1,3,4-oxadiazol-2-yl]-1,1-dioxo-2,3-dihydro-1λ^6,5-benzothiazepin-4-one], the Emax in the experiment with primary human T-cells [1] was found to be 111%; in the experiment on MV-3 cells (Homo sapiens, MV-3, 120 h), 89%. The EC50 turned out to be 1040 nM in the experiment on primary human T-cells [1], 460 nM in the experiment with MV-3 cells and 1130 nM with primary human T-cells [2].
Take `CCc1nnc(-c2cc3c(cc2F)S(=O)(=O)C[C@H](N)C(=O)N3Cc2ccc(Cl)cc2)o1` [Example 72, (3R)-3-Amino-5-[(4-chlorophenyl)methyl]-7-(5-ethyl-1,3,4-oxadiazol-2-yl)-8-fluoro-1,1-dioxo-2,3-dihydro-1λ^6,5-benzothiazepin-4-one]: the Emax in the experiment with primary human T-cells [1] was found to be 124%; with MV-3 cells (Homo sapiens, MV-3, 120 h), 115%. The EC50 in the experiment with primary human T-cells [1] turned out to be 1140 nM; with MV-3 cells, 310 nM; in the experiment with primary human T-cells [2] it was 3240 nM.
For `N[C@H]1CS(=O)(=O)c2cc(F)c(-c3nnc(NC4CCCC4)o3)cc2N(Cc2ccc(Cl)cc2)C1=O` [Example 455, (3R)-3-amino-5-[(4-chlorophenyl)methyl]-7-[5-(cyclopentylamino)-1,3,4-oxadiazol-2-yl]-8-fluoro-1,1-dioxo-2,3-dihydro-1λ^6,5-benzothiazepin-4-one], the Emax in the experiment on primary human T-cells [1] was 115%; in the experiment with MV-3 cells (Homo sapiens, MV-3, 120 h), 91%. For the same compound, the EC50 in the experiment with primary human T-cells [1] is 339 nM; with MV-3 cells, 370 nM; in the experiment with primary human T-cells [2], 225 nM.
The matching figures for `N[C@H]1CS(=O)(=O)c2cc(F)c(-c3nnc(C4CCCCC4(F)F)o3)cc2N(Cc2ccc(Cl)cc2)C1=O` (stereo partly drawn) [Example 74, (3R)-3-Amino-5-[(4-chlorophenyl)methyl]-7-[5-(2,2-difluorocyclohexyl)-1,3,4-oxadiazol-2-yl]-8-fluoro-1,1-dioxo-2,3-dihydro-1λ^6,5-benzothiazepin-4-one]: 180%, 97%, 48.7 nM, 20 nM and 55.2 nM.
In the same order, the values of `CC(C)(C)c1nnc(-c2cc3c(cc2F)S(=O)(=O)C[C@H](N)C(=O)N3Cc2ccc(Cl)nc2)o1` [Example 237, (3R)-3-amino-7-(5-tert-butyl-1,3,4-oxadiazol-2-yl)-5-[(6-chloro-3-pyridyl)methyl]-8-fluoro-1,1-dioxo-2,3-dihydro-1λ^6,5-benzothiazepin-4-one] are 106%, 84%, 1300 nM, 450 nM and 526 nM.
On to `Cc1cc2c(cc1-c1nnc(C(C)(C)C)o1)N(Cc1ccc(Cl)cc1)C(=O)[C@@H](N)CS2(=O)=O` [Example 272, (3R)-3-amino-7-(5-tert-butyl-1,3,4-oxadiazol-2-yl)-5-[(4-chlorophenyl)methyl]-8-methyl-1,1-dioxo-2,3-dihydro-1λ^6,5-benzothiazepin-4-one], for which the Emax with primary human T-cells [1] was 102%; in the experiment on MV-3 cells (Homo sapiens, MV-3, 120 h) it was 100%. The figures for the EC50 in the experiment with primary human T-cells [1], in the experiment with MV-3 cells and in the experiment with primary human T-cells [2] were 790 nM, 1090 nM and 1700 nM, respectively.
Consider `CC(C)(C)c1nnc(-c2cc3c(cc2F)SC[C@H](N)C(=O)N3Cc2ccc(OC(F)(F)F)cc2)o1` [Example 54, (3R)-3-amino-7-(5-tert-butyl-1,3,4-oxadiazol-2-yl)-8-fluoro-5-[[4-(trifluoromethoxy)phenyl]methyl]-2,3-dihydro-1,5-benzothiazepin-4-one], for which, in the experiment with primary human T-cells [1], the Emax was determined as 116% and the EC50 is 1120 nM. For the same compound, in the experiment with MV-3 cells (Homo sapiens, MV-3, 120 h), the Emax was determined as 123% and the EC50 was 300 nM.
